The target in experiment [1] is T1, HLA A*0201 on CEM.T2 cell line (Homo sapiens, UniProt P04439, D140Y/D185E/D98H/E176V/E277Q/G131W/G231S/I119V/I121R/I166T/I218V/L300P/L318F/N151K/N90K/P208A/P217A/Q86G/Q94H/R138H/R169H/T345S).
T1 construct: This cell line expresses HLA A*0201 but is deficient for TAP transporter; endogenous in cells; host or cells: CEM.T2 (T2) cell line
Nature of the experiment: Cellular binding assay, HLA stabilization on CEM.T2 cells. The class given is cell-based. The method, then:
The CEM.T2 cell line (T2) is defective in the processing of proteins for presentation by MHC class 1 molecules. This cell line expresses HLA A*0201 but is deficient for TAP transporter. T2 is classically used to assess the Peptide/HLA-A*0201 Complex Stability[H. W. Nijman et al., 1993]
For HLA-A2*0201 stabilization, T2 cells (2×10^5/well) were incubated in serum-free RPMI (Gibco®-France) with 100 μM of selected peptide, at 37° C. for 4 h. Cells were washed two times with PBS supplemented with 1% BSA and stained with fluorescein isothiocyanate-conjugated anti HLA-A2 (Clone BB7.2) (BD Bioscience Pharmingen-France-) at 4° C. for 45 min. After 3 washes, cells were fixed in PBS supplemented with 2% paraformaldehyde and analyzed by FACS (FACScan, BD Bioscience). The percentage of peptide binding was calculated as follows: % Binding={(MFI peptide sample−MFI Neg control)/(MFI Pos control−MFI Neg control)}×100
Negative control was done without peptide.

Experiment [2] deals with T2, HLA-A*0201 (Homo sapiens, UniProt P04439, D140Y/D185E/D98H/E176V/E277Q/G131W/G231S/I119V/I121R/I166T/I218V/L300P/L318F/N151K/N90K/P208A/P217A/Q86G/Q94H/R138H/R169H/T345S). The experiment is described as follows: F-Score ranking (iTOPIA and CEM T2). The following applies: overall ranking by iTOPIA and CEM T2 assays, nectin4 and reference peptides together.
Experiment [3] has as its target T2, HLA-A*0201. The experiment is described as follows: iScore calculation (iTOPIA system software). The following applies: multiparametric score of binding, off-rate and affinity.
The target in experiment [4] is T2, HLA-A*0201. The experiment is described as follows: biochemical. The class given is binding.
For experiment [5], the target named is T1, HLA A*0201 on CEM.T2 cell line. Nature of the experiment: Cellular dissociation assay on CEM.T2 cells. The following applies: after Brefeldin A 1 h and 3 h in serum-free RPMI at 37° C. (4 h). The class given is cell-based. The method, then: Cellular Dissociation Assay
After HLA-A2*0201 stabilization with peptides at 37° C. for 4 h, T2 cells were incubated for 1 h, in serum-free RPMI containing Brefeldin A (10 μg/ml), an inhibitor of the transport of secretory and lysosomal proteins [G. J. Strous et al., 1993]. After 3 washes, T2 cells were incubated for 3 h in serum-free RPMI at 37° C. Binding was then measured by FACS and after 4 h incubation. Percentage of Residual Binding (% RB) was calculated as follows: […]

The target in experiment [6] is T2, HLA-A*0201. Nature of the experiment: iTOPIA EDS MHC peptide binding assay. The note with it: HLA-A*0201 monomer, relative to positive control peptide, 21° C. for 18 h. From the text:
MHC peptide binding assay using iTOPIA EDS
Microtiter 96 well plates containing HLA class I MHC monomer loaded with the human β2-microglobulin and a “placeholder” peptide were used to evaluate peptide binding, affinity, and off-rate.
The 502 nectin4 nonapeptides were first evaluated for their ability to bind to each MHC molecule in the peptide binding assay. In this assay, the placeholder peptides were stripped from the MHC class I monomer complexes coated on plastic, which leaves the MHC class I heavy chain available as a binding partner for candidate peptides in the presence of human β2-microglobulin.
Peptide binding was performed at 21° C. for 18 h. Revelation was done using an anti HLA-ABC-FITC mAb that binds to refolded MHC complex conformation. The relative fluorescent intensity was read using a fluorimeter (Molecular Devices, SpectraMax Gemini, Sunnyvale, Calif., USA).
Peptides with a binding>30% of the positive control peptide were selected as “binder” and subsequently analyzed for affinity (ED50) and off-rate (T1/2).

The target of a further experiment is HLA-B*1501 (Homo sapiens, UniProt P01889, A329T/A93T/A95T/C349S/D201E/D98Y/E187L/E204Q/E69M/E70A/K202T/N87E/Q94N/R155S/R180W/S121R/S35A/S48A/V306I/V36M/Y140S/Y91S). The experiment is described as follows: iTOPIA EDS and […] analyses (FIG. 5B). The class given is binding. The note with it: iTOPIA EDS and SYFPEITHI
The method, then: (§1) A library of 502 nonapeptides which span the entire 510 amino acid sequence of human nectin4, was synthesized (JPT Peptide Technologies GmbH, Berlin Germany). A series of 9 peptides described in the literature was selected and used as reference (Table 1). Peptides (purity >80%) were dissolved in DMSO at a concentration of 10 mM and stored at −20° C. Specific control peptides for each allele were supplied by the manufacturer of the iTOPIA Epitope Discovery System (EDS) (Beckman Coulter Inc., San Diego, Calif., USA). The 502 peptides were tested for binding to eight alleles (HLA-A*0101; HLA-A*0201; HLA-A*0301; HLA-A*1101; HLA-A*2402; […]; HLA-B*0801; HLA-B*1501) with the iTOPIA EDS.

The next experiment addresses HLA-A*2402 (Homo sapiens, UniProt P04439, D101N/D140Y/D185E/E176V/E190D/F33S/G103R/G107R/I119L/I121M/I306V/K335N/L105A/L180Q/L300P/N151K/N90K/Q86E/Q94H/R106L/R138H/R89G/T104I/T345S/V100E/W191G/Y123F). Nature of the experiment: iTOPIA EDS and […] analyses (FIG. 5B). The class given is binding. The following applies: iTOPIA EDS and SYFPEITHI
The protocol: as §1

The target of experiment [7] is T2, HLA-A*0201. The experiment is described as follows: iTOPIA EDS and […] analyses (FIG. 5B). The class given is binding. The following applies: iTOPIA EDS and SYFPEITHI
The method, then:
as §1

Experiment [8] has as its system MDA-MB-231 breast carcinoma cell line. The experiment is described as follows: CTL cytotoxicity, 4 h 51Cr-release assay. The class given is cell-based, human. The following applies: FIG. 4D.

Like-named read-outs stand apart in the source and are kept apart here. Residues, ends and D or L forms follow the SMILES beside them.

On to `CC(C)C[C@H](NC(=O)[C@@H](N)CC(C)C)C(=O)N[C@@H](C)C(=O)N[C@@H](CO)C(=O)N[C@@H](Cc1ccccc1)C(=O)N[C@H](C(=O)NCC(=O)N[C@@H](CCCNC(=N)N)C(=O)N[C@@H](CS)C(=O)O)[C@@H](C)O` [Peptide 21] (H-LLASFTGRC-OH; N-terminus and C-terminus assumed), for which the “CEM.T2 % Binding” value in [1] (100 μM peptide, 37° C. for 4 h, FACS anti HLA-A2, relative to HBV positive control peptide) amounted to 44%. Further, the “RANK F-Score” value at HLA-A*0201 [2] is on record as 11. The iScore at HLA-A*0201 [3] is 0.727. For the same molecule, the EC50 on HLA-A*0201 [4] (FIG. 2A, peptide concentration 10^−4 to 10^−9 M, read-out: estimated dose to reach 50% maximal binding (ED50)) was around 100 nM; on HLA-A*0201 [4] (peptide concentration giving 50% of optimal binding, 10^−4 to 10^−9 M, 21° C. for 18 h, read-out: Affinity (ED50)), 600 nM. In addition, in experiment [5], the “CEM.T2 % Residual Binding” value worked out at 86%. The “% Binding” value at HLA-A*0201 [6] stood at 91%.

As to `CC(C)C[C@H](NC(=O)[C@H](CO)NC(=O)[C@@H]1CCCN1C(=O)[C@H](CC(C)C)NC(=O)[C@@H]1CCCN1C(=O)[C@@H]1CCCN1C(=O)[C@@H](NC(=O)[C@H](CC(C)C)NC(=O)[C@@H](N)C(C)C)C(C)C)C(=O)O` [Peptide 145] (H-VLVPPLPSL-OH; N-terminus and C-terminus assumed), the “binder class for HLA-B*1501” value on HLA-B*1501 is “strong binder”. Also, the “binder class for HLA-A*2402” value at HLA-A*2402 was “strong binder”. Besides, the “binder class for HLA-A*0201” value on HLA-A*0201 [7] is “strong binder”. Also, the “HLA-A*0201 class I level on T2 cells” value in experiment [1] (flow cytometry, FIG. 3A and 3B) is “increase the HLA-A*0201 class I level on T2 cells”. Further, the “lysis by peptide-specific CTL of MDA-MB-231 cell line expressing nectin4” value in [8] (CTL isolated with HLA-A2/peptide tetramer, target not peptide loaded) is listed as “able to kill the MDA-MB-231 cell line expressing nectin4”. Also, in experiment [8] (nectin4 negative HLA-A*0201 target), the “lysis by peptide-specific CTL of wild-type MDA-MB-231 cells” value is “not the wild-type MDA-MB-231 cells”. The iScore at HLA-A*0201 [3] is given as 0.783. Also, the EC50 is 500 nM at HLA-A*0201 [4] (Affinity (ED50)) and around 100 nM at HLA-A*0201 [4] (estimated dose to reach 50% maximal binding (ED50)). Moreover, the “% Binding” value on HLA-A*0201 [6] is on record as 67%.
